6 molecules from US12139520B2 (priority 2020, dated 2024) can be followed below.

Bridge positions count the residues as written; N and C are the ends. Square brackets hold non-standard residues; d marks the D form. Peptide text beside a SMILES is read from it. Hyp = O=C(O)[C@@H]1C[C@@H](O)CN1

The target in one data set is T1, hAMY3 receptor (Homo sapiens, UniProt O60896+P30988).
T1 sequence (P30988 25-474): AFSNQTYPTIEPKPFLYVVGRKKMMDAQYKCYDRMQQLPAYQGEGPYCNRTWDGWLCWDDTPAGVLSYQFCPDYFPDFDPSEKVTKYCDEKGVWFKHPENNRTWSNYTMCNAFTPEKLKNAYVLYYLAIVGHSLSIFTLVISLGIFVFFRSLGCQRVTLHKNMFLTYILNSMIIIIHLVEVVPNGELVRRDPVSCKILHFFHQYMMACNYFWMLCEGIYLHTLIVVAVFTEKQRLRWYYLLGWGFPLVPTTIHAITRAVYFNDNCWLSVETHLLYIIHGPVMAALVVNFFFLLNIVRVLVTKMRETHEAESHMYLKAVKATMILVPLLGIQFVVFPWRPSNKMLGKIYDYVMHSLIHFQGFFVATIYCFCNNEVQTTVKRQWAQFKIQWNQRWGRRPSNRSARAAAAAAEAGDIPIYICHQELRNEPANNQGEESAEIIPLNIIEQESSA
T1 sequence (O60896 24-148 partner): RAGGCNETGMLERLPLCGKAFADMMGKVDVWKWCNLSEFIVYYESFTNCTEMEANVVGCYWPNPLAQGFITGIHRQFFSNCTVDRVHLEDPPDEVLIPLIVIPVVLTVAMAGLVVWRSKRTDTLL
Kind of data set: cAMP assay for in vitro receptor activation, hAMY3-R. As to conditions: cAMP assay, hAMY3 receptor; read-out: hAMY3R EC50. Format: cell-based. Put shortly:
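Receptor activation was measured as cAMP accumulation in a monoclonal cell line stably overexpressing hAMY3. Stimulation with graded doses lasted 30 min at room temperature in the presence of 0.5 mM IBMX, with human amylin as positive control.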

The nature of data set [1]: Physical stability of peptide analogues (Thioflavin T fibrillation). It counts as physicochemical. Particulars: maximum ThT signal normalized between hAMY maximum and buffer background; 40° C., shaking, four days; pH 7 per table title. Put shortly:
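Maximum ThT emission at 480 nm, after LOESS smoothing, is given as percent of the span from buffer background to hAMY. Conditions: 50 mM buffer at pH 4 or 7, 4 μM dye, 40 °C, repeated shaking, readings every 10 min for four days.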

For the molecule `CC[C@H](C)[C@H](NC(=O)[C@H](CC(N)=O)NC(=O)[C@@H](NC(=O)[C@H](CCCNC(=N)N)NC(=O)[C@@H]1CCCN1C(=O)[C@H](C)NC(=O)[C@@H](NC(=O)[C@H](CC(N)=O)NC(=O)[C@H](CC(=O)O)NC(=O)[C@H](CCCCN)NC(=O)[C@H](CC(=O)O)NC(=O)[C@H](CCCCN)NC(=O)[C@H](CC(=O)O)NC(=O)[C@@H](NC(=O)[C@H](Cc1ccccc1)NC(=O)[C@H](CCC(N)=O)NC(=O)[C@H](Cc1ccc(O)cc1)NC(=O)[C@@H](NC(=O)[C@H](CCC(N)=O)NC(=O)[C@H](Cc1c[nH]cn1)NC(=O)[C@H](C)NC(=O)[C@H](CC(C)C)NC(=O)[C@H](CCCNC(=N)N)NC(=O)[C@H](CCC(N)=O)NC(=O)[C@@H](NC(=O)[C@@H](NC(=O)[C@@H]1CSSC[C@H](NC(=O)CN)C(=O)N[C@@H](CCCNC(=N)N)C(=O)N[C@@H](Cc2ccccc2)C(=O)NCC(=O)N[C@@H]([C@@H](C)O)C(=O)N1)[C@@H](C)O)C(C)C)[C@@H](C)CC)[C@@H](C)O)C(C)C)[C@@H](C)O)C(=O)NCC(=O)N1CCC[C@H]1C(=O)N[C@@H](CC(N)=O)C(=O)NCC(=O)N1C[C@H](O)C[C@H]1C(N)=O` [compound 81] (H-GCRFGTCTVQRLAHQIYQFTDKDKDNVAPRTNIGPNG[Hyp]-NH2; disulfide 2-7; N-terminus assumed), at hAMY3 receptor, the EC50 stood at 0.015 nM. The “Max ThT signal (%)” value in data set [1] worked out at 4.000%.

As to `CC[C@H](C)[C@H](NC(=O)[C@H](CCC(N)=O)NC(=O)[C@H](Cc1c[nH]cn1)NC(=O)[C@H](C)NC(=O)[C@H](CC(C)C)NC(=O)[C@H](CCCNC(=N)N)NC(=O)[C@H](CCC(N)=O)NC(=O)[C@@H](NC(=O)[C@@H](NC(=O)[C@@H]1CSSC[C@H](NC(=O)CN)C(=O)N[C@@H](CCCNC(=N)N)C(=O)N[C@@H]([C@@H](C)O)C(=O)NCC(=O)N[C@@H]([C@@H](C)O)C(=O)N1)[C@@H](C)O)C(C)C)C(=O)N[C@@H](Cc1ccc(O)cc1)C(=O)N[C@@H](CCC(N)=O)C(=O)N[C@@H](Cc1ccccc1)C(=O)N[C@H](C(=O)N[C@@H](CC(=O)O)C(=O)N[C@@H](CCCCN)C(=O)N[C@@H](CC(=O)O)C(=O)N[C@@H](CCCCN)C(=O)N[C@@H](CC(=O)O)C(=O)N[C@@H](CC(N)=O)C(=O)N[C@H](C(=O)N[C@@H](C)C(=O)N1CCC[C@H]1C(=O)N[C@@H](CCCNC(=N)N)C(=O)N[C@H](C(=O)N[C@@H](CC(N)=O)C(=O)N[C@H](C(=O)NCC(=O)N1CCC[C@H]1C(=O)N[C@@H](CC(N)=O)C(=O)NCC(=O)N[C@@H](Cc1ccc(O)cc1)C(N)=O)C(C)C)[C@@H](C)O)C(C)C)[C@@H](C)O` [compound 84] (H-GCRTGTCTVQRLAHQIYQFTDKDKDNVAPRTNVGPNGY-NH2; disulfide 2-7; N-terminus assumed), the concentration giving a half-maximal response (EC50) on hAMY3 receptor is 0.015 nM. Moreover, the “Max ThT signal (%)” value in data set [1] is 14.200%.

As for `CC[C@H](C)[C@H](NC(=O)[C@H](CCC(N)=O)NC(=O)[C@H](Cc1c[nH]cn1)NC(=O)[C@H](C)NC(=O)[C@H](CC(C)C)NC(=O)[C@H](CCCNC(=N)N)NC(=O)[C@H](CCC(N)=O)NC(=O)[C@@H](NC(=O)[C@@H](NC(=O)[C@@H]1CSSC[C@H](NC(=O)CN)C(=O)N[C@@H](CCCNC(=N)N)C(=O)N[C@@H](Cc2ccccc2)C(=O)NCC(=O)N[C@@H]([C@@H](C)O)C(=O)N1)[C@@H](C)O)C(C)C)C(=O)N[C@@H](Cc1ccc(O)cc1)C(=O)N[C@@H](CCC(N)=O)C(=O)N[C@@H](Cc1ccccc1)C(=O)N[C@H](C(=O)N[C@@H](CC(=O)O)C(=O)N[C@@H](CCCCN)C(=O)N[C@@H](CC(=O)O)C(=O)N[C@@H](CCCCN)C(=O)N[C@@H](CC(=O)O)C(=O)N[C@@H](CC(N)=O)C(=O)N[C@H](C(=O)N[C@@H](C)C(=O)N1CCC[C@H]1C(=O)N[C@@H](CCCNC(=N)N)C(=O)N[C@H](C(=O)N[C@@H](CC(N)=O)C(=O)N[C@H](C(=O)NCC(=O)N1CCC[C@H]1C(=O)N[C@@H](CC(N)=O)C(=O)NCC(=O)N1C[C@H](O)C[C@H]1C(N)=O)C(C)C)[C@@H](C)O)C(C)C)[C@@H](C)O` [compound 90] (H-GCRFGTCTVQRLAHQIYQFTDKDKDNVAPRTNVGPNG[Hyp]-NH2; disulfide 2-7; N-terminus assumed), the half-maximal effective concentration (EC50) on hAMY3 receptor is 0.016 nM. The “Max ThT signal (%)” value in data set [1] was 2.000%.

For the molecule `CC[C@H](C)[C@H](NC(=O)[C@H](CCC(N)=O)NC(=O)[C@H](Cc1c[nH]cn1)NC(=O)[C@H](C)NC(=O)[C@H](CC(C)C)NC(=O)[C@H](CCCNC(=N)N)NC(=O)[C@H](CCC(N)=O)NC(=O)[C@@H](NC(=O)[C@@H](NC(=O)[C@@H]1CSSC[C@H](NC(=O)CN)C(=O)N[C@@H](CCCNC(=N)N)C(=O)N[C@@H](Cc2ccccc2)C(=O)NCC(=O)N[C@@H]([C@@H](C)O)C(=O)N1)[C@@H](C)O)C(C)C)C(=O)N[C@@H](Cc1ccc(O)cc1)C(=O)N[C@@H](CCC(N)=O)C(=O)N[C@@H](Cc1ccccc1)C(=O)N[C@H](C(=O)N[C@@H](CC(=O)O)C(=O)N[C@@H](CCCCN)C(=O)N[C@@H](CC(=O)O)C(=O)N[C@@H](CCCCN)C(=O)N[C@@H](CC(=O)O)C(=O)N[C@@H](CC(N)=O)C(=O)N[C@H](C(=O)N[C@@H](C)C(=O)N1CCC[C@H]1C(=O)N[C@@H](CCCNC(=N)N)C(=O)N[C@H](C(=O)N[C@@H](CC(N)=O)C(=O)N[C@H](C(=O)N[C@@H](CO)C(=O)N1CCC[C@H]1C(=O)N[C@@H](CC(N)=O)C(=O)NCC(=O)N[C@@H](Cc1ccc(O)cc1)C(N)=O)C(C)C)[C@@H](C)O)C(C)C)[C@@H](C)O` [compound 98] (H-GCRFGTCTVQRLAHQIYQFTDKDKDNVAPRTNVSPNGY-NH2; disulfide 2-7; N-terminus assumed), the EC50 on hAMY3 receptor stood at 0.017 nM. Also, the “Max ThT signal (%)” value in data set [1] came out at 12.600%.

As to `CC[C@H](C)[C@H](NC(=O)[C@H](CCC(N)=O)NC(=O)[C@H](Cc1c[nH]cn1)NC(=O)[C@H](C)NC(=O)[C@H](CC(C)C)NC(=O)[C@H](CCCNC(=N)N)NC(=O)[C@H](CCC(N)=O)NC(=O)[C@@H](NC(=O)[C@@H](NC(=O)[C@@H]1CSSC[C@H](NC(=O)CN)C(=O)N[C@@H](CCCNC(=N)N)C(=O)N[C@@H]([C@@H](C)O)C(=O)NCC(=O)N[C@@H]([C@@H](C)O)C(=O)N1)[C@@H](C)O)C(C)C)C(=O)N[C@@H](Cc1ccc(O)cc1)C(=O)N[C@@H](CCC(N)=O)C(=O)N[C@@H](Cc1ccccc1)C(=O)N[C@H](C(=O)N[C@@H](CC(=O)O)C(=O)N[C@@H](CCCCN)C(=O)N[C@@H](CC(=O)O)C(=O)N[C@@H](CCCCN)C(=O)N[C@@H](CC(=O)O)C(=O)N[C@@H](CC(N)=O)C(=O)N[C@H](C(=O)N[C@@H](C)C(=O)N1CCC[C@H]1C(=O)N[C@@H](CCCNC(=N)N)C(=O)N[C@H](C(=O)N[C@@H](CC(N)=O)C(=O)N[C@H](C(=O)NCC(=O)N1CCC[C@H]1C(=O)N[C@@H](CCC(N)=O)C(=O)NCC(=O)N[C@@H](Cc1ccc(O)cc1)C(N)=O)C(C)C)[C@@H](C)O)C(C)C)[C@@H](C)O` [compound 109] (H-GCRTGTCTVQRLAHQIYQFTDKDKDNVAPRTNVGPQGY-NH2; disulfide 2-7; N-terminus assumed), the concentration giving a half-maximal response (EC50) at hAMY3 receptor was 0.02 nM. Moreover, the “Max ThT signal (%)” value in data set [1] is on record as 9.300%.

Take `CC[C@H](C)[C@H](NC(=O)[C@H](CCC(N)=O)NC(=O)[C@H](Cc1c[nH]cn1)NC(=O)[C@H](C)NC(=O)[C@H](CC(C)C)NC(=O)[C@H](CCCNC(=N)N)NC(=O)[C@H](CCC(N)=O)NC(=O)[C@@H](NC(=O)[C@@H](NC(=O)[C@@H]1CSSC[C@H](NC(=O)CN)C(=O)N[C@@H](CCCNC(=N)N)C(=O)N[C@@H](Cc2ccccc2)C(=O)NCC(=O)N[C@@H]([C@@H](C)O)C(=O)N1)[C@@H](C)O)C(C)C)C(=O)N[C@@H](Cc1ccc(O)cc1)C(=O)N[C@@H](CCC(N)=O)C(=O)N[C@@H](Cc1ccccc1)C(=O)N[C@H](C(=O)N[C@@H](CC(=O)O)C(=O)N[C@@H](CCCCN)C(=O)N[C@@H](CC(=O)O)C(=O)N[C@@H](CCCCN)C(=O)N[C@@H](CC(=O)O)C(=O)N[C@@H](CC(N)=O)C(=O)N[C@H](C(=O)N[C@@H](C)C(=O)N1CCC[C@H]1C(=O)N[C@@H](CCCNC(=N)N)C(=O)N[C@H](C(=O)N[C@@H](CCCCN)C(=O)N[C@H](C(=O)N[C@@H](CO)C(=O)N1CCC[C@H]1C(=O)N[C@@H](CC(N)=O)C(=O)NCC(=O)N1C[C@H](O)C[C@H]1C(N)=O)[C@@H](C)CC)[C@@H](C)O)C(C)C)[C@@H](C)O` [compound 113] (H-GCRFGTCTVQRLAHQIYQFTDKDKDNVAPRTKISPNG[Hyp]-NH2; disulfide 2-7; N-terminus assumed): the EC50 at hAMY3 receptor came to 0.022 nM. The “Max ThT signal (%)” value in data set [1] was 14.700%.
